Data on three molecules can be found in patent US12357679B2, “Albumin-based non-covalent complexes and methods of use thereof” (Spectral Platforms, Inc., priority 2015, dated 2025).

≈ marks a conversion by molar mass, not a printed value.

Series [1] relates to Candida albicans (ATCC 90028). The settings on record: C. albicans; cited from earlier work.
A further series concerns C. glabrata (ATCC 2001). The conditions noted are these: cited from earlier work.
Series [2] deals with most gram positive organisms. The conditions noted are these: cited from earlier work.
The conditions of series [3]: cited from earlier work.
For series [4] the following is noted: ingestion of a 200 mg tablet, microcrystalline suspension in oil-wax base; cited from earlier work.
For series [5], the system named is S. aureus. Description: MIC by absorbance at 600 nm after 18 hour incubation. In kind it is cell-based. The conditions noted are these: Staphylococcus aureus; absorbance at 600 nm after 18 hour incubation at 37° C.; read-out: actual MIC (break point). The method, then:
(§1) The present lycopene/HSA complexes were used to characterize the minimum inhibitory concentration (MIC) of antimicrobial compounds. A lycopene/HSA complex, prepared as described herein, was mixed with a series of samples that all had the same initial amount of S. aureus (200 CFU/mL of PHS), and which was incubated with a varying amount of vancomycin for 30 minutes. […] Upon the addition of the lycopene/HSA assay, aggregation of the lycopene/HSA increased in a manner that scales with S. aureus concentration (and thus on the vancomycin concentration). These changes were characterized via the changes in the UV-Vis spectrum, depicted at the bottom in FIG. 23. The chart on the top in FIG. 23 depicts the absorbance at 600 nm for these samples after another 18 hours of incubation. This absorbance was dominated by the pathogen concentration after 18 hours of growth.
(§2) FIG. 23. Rapid prediction of the MIC of S. aureus at 200 CFU/mL. […] Lycopene (1.125 mM), fucoxanthin (0.375 mM), additional vancomycin (so as to maintain the same concentration of vancomycin) and additional 3440 μl PBS (to bring the total volume to 6 ml) was added and the UV-Vis absorbance was measured. […] The chart on the top depicts the absorbance at 600 nm after 18 hour incubation at 37° C. […]

Series [6] relates to S. aureus. In words: Rapid MIC prediction with lycopene/HSA assay (UV-Vis absorbance after 30 min incubation). The series is classed as cell-based. The settings on record: Staphylococcus aureus, 0.5 h. The method, then:
as §1, §2

As to `C[C@@H]1[C@H](O)[C@@H](C)/C=C/C=C/C=C/C=C/C=C/C=C/C=C/[C@H](O[C@@H]2O[C@H](C)[C@@H](O)[C@H](N)[C@@H]2O)C[C@@H]2O[C@](O)(C[C@@H](O)C[C@@H](O)[C@H](O)CC[C@@H](O)C[C@@H](O)CC(=O)O[C@H]1C)C[C@H](O)[C@H]2C(=O)O` [Amphotericin B], the “previously reported minimum inhibitory concentration MIC” value (in series [1]; with C. glabrata (ATCC 2001)) was “about 0.5 μg/mL” in each case.
As for `CC(C)/N=c1\cc2n(-c3ccc(Cl)cc3)c3ccccc3nc-2cc1Nc1ccc(Cl)cc1` [Clofazimine], the MIC entry in series [2] is recorded as “about 0.4 μg/mL”. The water solubility entry in series [3] is listed as “not water soluble”. Also, the peak plasma concentration in series [4] is 0.41 µg/mL.
Consider `CN[C@H](CC(C)C)C(=O)N[C@H]1C(=O)N[C@@H](CC(N)=O)C(=O)N[C@H]2C(=O)N[C@H]3C(=O)N[C@H](C(=O)N[C@H](C(=O)O)c4cc(O)cc(O)c4-c4cc3ccc4O)[C@H](O)c3ccc(c(Cl)c3)Oc3cc2cc(c3O[C@@H]2O[C@H](CO)[C@@H](O)[C@H](O)[C@H]2O[C@H]2C[C@](C)(N)[C@H](O)[C@H](C)O2)Oc2ccc(cc2Cl)[C@H]1O` [vancomycin], for which the values for the minimal inhibitory concentration (MIC) in the series with S. aureus [5], in the series on S. aureus [6] (read-out: predicted MIC) and with S. aureus [6] (read-out: predicted MIC (break point)) were 0.2 µg/mL (≈ 0.138 µM), approximately 0.6 µg/mL (≈ 0.414 µM) and 200 µg/mL (≈ 138 µM), respectively.
